How the values were obtained:
[1] = biological target: WT NA (neuraminidase of pandemic H1N1 virus A/California/07/2009) (Influenza A virus (A/California/07/2009(H1N1)), UniProt C3W6G3); assay: fluorescence NA activity assay (ex […] nm, em […] nm); format: biochemical; conditions: 37 °C, 60 min; whole virus
[2] = biological target: WT NA (neuraminidase of pandemic H1N1 virus A/California/07/2009) (Influenza A virus (A/California/07/2009(H1N1)), UniProt C3W6G3); assay: fluorescence NA inhibition assay (NA-Fluor, MUNANA); format: biochemical; conditions: MUNANA substrate; 30 min preincubation, 60 min reaction, 37 °C; whole virus 10^6 PFU/mL; ethyl ester prodrug tested as such

SMILES: CC(=O)N[C@H]1[C@H]([C@H](O)[C@H](O)CO)O[C@@](Oc2ccc3c(C)cc(=O)oc3c2)(C(=O)O)C[C@@H]1O [2-(4-methylumbelliferyl)-a-D-N-acetylneuraminic acid]
- fluorescence NA activity assay (ex 360 nm, em 450 nm) [1]: (MUNANA) was used as the fluorescent substrate to determine the NA enzymatic parameters

SMILES: CCOC(=O)C1=C[C@@H](OC(CC)CC)[C@H](NC(C)=O)[C@@H](N)C1 [compound 3, oseltamivir phosphate]
- relative NA activity [2]: increase in oseltamivir phosphate concentration was accompanied by its binding to WT NA and inhibition

From PMC6115449, “Rapid and simple detection of Tamiflu-resistant influenza virus: Development of oseltamivir derivative-based lateral flow biosensor for point-of-care (POC) diagnostics” (Scientific Reports, 2018)
